Data reported in article PMC9763054 (Nature, 2021).

Target: human CB1 (Homo sapiens, UniProt P21554)
Type: cell-based

Sequence of human CB1 (P21554 whole entry): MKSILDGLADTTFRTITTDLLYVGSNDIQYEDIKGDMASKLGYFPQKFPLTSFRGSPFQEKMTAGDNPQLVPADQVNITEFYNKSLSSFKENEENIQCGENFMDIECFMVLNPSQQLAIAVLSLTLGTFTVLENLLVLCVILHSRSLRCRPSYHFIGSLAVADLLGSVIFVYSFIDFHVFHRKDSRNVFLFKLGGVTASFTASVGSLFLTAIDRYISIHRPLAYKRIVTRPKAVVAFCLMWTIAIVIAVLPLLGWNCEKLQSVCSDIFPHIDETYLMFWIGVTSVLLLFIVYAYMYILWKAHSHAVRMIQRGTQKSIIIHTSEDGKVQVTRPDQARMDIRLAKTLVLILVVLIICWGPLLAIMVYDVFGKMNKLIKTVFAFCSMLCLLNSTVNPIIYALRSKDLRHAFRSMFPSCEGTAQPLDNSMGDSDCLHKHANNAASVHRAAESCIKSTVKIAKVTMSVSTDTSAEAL

Compound: CCCCCCC(C)(C)c1ccc([C@@H]2C[C@H](O)CC[C@H]2CCCO)c(O)c1 [CP55940]
- CB1 potency measured in agonist mode: 17 nM
